Results taken from paper PMC7259758 (PLoS ONE, 2020).

Tests used:
[1] = system: phosphorylation of SR proteins; test: Western blot of nuclear extracts, phosphor-SR proteins; conditions: HCT116 and Rh18 cells, 4 h; SD6 10 μM, compound 1 10 μM, compound 2 5 μM, compound 3 10 μM
CLK2(h) = molecular target: T1, CLK2(h) (Homo sapiens, UniProt P49760); test: Radiometric protein kinase assay (Eurofins); type: biochemical; conditions: ATP 10 μM
T1 construct: purchased Eurofins, Dundee, Scotland

DYRK1B (h) = molecular target: T2, DYRK1B (h) (Homo sapiens, UniProt Q9Y463); test: Radiometric protein kinase assay (Eurofins); type: biochemical; conditions: ATP 45 μM
T2 construct: purchased Eurofins, Dundee, Scotland
Protocol: (§1) Enzymatic biochemical activities were evaluated in radiometric protein kinase assays (Eurofins, Dundee, Scotland). Kinases are incubated with buffer, substrate and [γ-^33P]-ATP (specific activity approx. 500 cpm/pmol, concentration as required). The reaction is initiated by the addition of the MgATP mix. After incubation for 40 minutes at room temperature, the reaction is stopped by the addition of 3% phosphoric acid solution. 10 μL of the reaction is then spotted onto a P30 filtermat and washed three times for 5 minutes in 75 mM phosphoric acid and once in methanol prior to drying and scintillation counting. All compounds are prepared to 50x final assay concentration in 100% DMSO. Positive control wells contain all components of the reaction with 2% DMSO. Blank wells contain all components of the reaction, with a reference inhibitor replacing the compound of interest. Each kinase is assigned a standard assay concentration of ATP within 20 μM of its apparent Km. Compounds were screened at 1 μM in duplicate or tested at 10 concentrations at half log dilution starting from 10 μM in singlicate. Dose response curves were fitted with four parameter logistic curve to obtain IC50 values. […]
(§2) Staurosporine is used as reference for all tested enzymes except for SRPK3 (reference inhibitor: K-252a. Nocardiopsis sp), NEK2 (reference inhibitor: […]), and CK2, CK2α2, MAPK1, MAPK2 (reference inhibitor: PKR Inhibitor). See Table 1 below for additional details.

AKT3 = molecular target: T3, AKT3 (Homo sapiens, UniProt Q9Y243); test: Radiometric protein kinase assay (Eurofins); type: biochemical; conditions: ATP 45 μM
T3 construct: purchased Eurofins, Dundee, Scotland
Protocol: as §1, §2

CLK3(h) = molecular target: T4, CLK3(h) (Homo sapiens, UniProt P49761); test: Radiometric protein kinase assay (Eurofins); type: biochemical; conditions: ATP 90 μM
T4 construct: purchased Eurofins, Dundee, Scotland
Protocol: as §1, §2

SRPK1(h) = molecular target: T5, SRPK1(h) (Homo sapiens, UniProt Q96SB4); test: Radiometric protein kinase assay (Eurofins); type: biochemical; conditions: ATP 10 μM
T5 construct: purchased Eurofins, Dundee, Scotland
Protocol: as §1, §2

MAPK2 (h) = molecular target: T6, MAPK2 (h) (Homo sapiens, UniProt P28482); test: Radiometric protein kinase assay (Eurofins); type: biochemical; conditions: 40 min; ATP 155 μM; read-out: MAPK2 IC50
T6 construct: purchased Eurofins, Dundee, Scotland
Protocol: as §1, §2

CLK1(h) = molecular target: T7, CLK1(h) (Homo sapiens, UniProt P49759); test: Radiometric protein kinase assay (Eurofins); type: biochemical; conditions: ATP 10 μM
T7 construct: purchased Eurofins, Dundee, Scotland
Protocol: as §1, §2

CK2 (h) = molecular target: T8, CK2 (h) (Homo sapiens, UniProt P68400); test: Radiometric protein kinase assay (Eurofins); type: biochemical; conditions: 40 min; ATP 10 μM; read-out: CK2 IC50
T8 construct: purchased Eurofins, Dundee, Scotland
Protocol: as §1, §2

DYRK1A(h) = molecular target: T9, DYRK1A(h) (Homo sapiens, UniProt Q13627); test: Radiometric protein kinase assay (Eurofins); type: biochemical; conditions: ATP 45 μM
T9 construct: purchased Eurofins, Dundee, Scotland
Protocol: as §1, §2

GSK3α(h) = molecular target: T10, GSK3α(h) (Homo sapiens, UniProt P49840); test: Radiometric protein kinase assay (Eurofins); type: biochemical; conditions: 40 min; ATP 10 μM; read-out: GSK3α(h) IC50
T10 construct: purchased Eurofins, Dundee, Scotland
Protocol: as §1, §2

CK2α2 (h) = molecular target: T11, CK2α2 (h) (Homo sapiens, UniProt P19784); test: Radiometric protein kinase assay (Eurofins); type: biochemical; conditions: 40 min; ATP 10 μM; read-out: CK2a2 IC50
T11 construct: purchased Eurofins, Dundee, Scotland
Protocol: as §1, §2

CLK4(h) = molecular target: T12, CLK4(h) (Homo sapiens, UniProt Q9HAZ1); test: Radiometric protein kinase assay (Eurofins); type: biochemical; conditions: ATP 10 μM
T12 construct: purchased Eurofins, Dundee, Scotland
Protocol: as §1, §2

SRPK2 (h) = molecular target: T13, SRPK2 (h) (Homo sapiens, UniProt P78362); test: Radiometric protein kinase assay (Eurofins); type: biochemical; conditions: 40 min; ATP 10 μM; read-out: SRPK2 IC50
T13 construct: purchased Eurofins, Dundee, Scotland
Protocol: as §1, §2

SRPK3 (h) = molecular target: T14, SRPK3 (h) (Homo sapiens, UniProt Q9UPE1); test: Radiometric protein kinase assay (Eurofins); type: biochemical; conditions: ATP 15 μM
T14 construct: purchased Eurofins, Dundee, Scotland
Protocol: as §1, §2

MAPK1 (h) = molecular target: T15, MAPK1 (h) (Homo sapiens, UniProt P27361); test: Radiometric protein kinase assay (Eurofins); type: biochemical; conditions: 40 min; read-out: MAPK1 IC50
T15 construct: purchased Eurofins, Dundee, Scotland
Protocol: as §1, §2

DYRK2 (h) = molecular target: T16, DYRK2 (h) (Homo sapiens, UniProt Q92630); test: Radiometric protein kinase assay (Eurofins); type: biochemical; conditions: ATP 15 μM
T16 construct: purchased Eurofins, Dundee, Scotland
T16 sequence (Q92630 1-601): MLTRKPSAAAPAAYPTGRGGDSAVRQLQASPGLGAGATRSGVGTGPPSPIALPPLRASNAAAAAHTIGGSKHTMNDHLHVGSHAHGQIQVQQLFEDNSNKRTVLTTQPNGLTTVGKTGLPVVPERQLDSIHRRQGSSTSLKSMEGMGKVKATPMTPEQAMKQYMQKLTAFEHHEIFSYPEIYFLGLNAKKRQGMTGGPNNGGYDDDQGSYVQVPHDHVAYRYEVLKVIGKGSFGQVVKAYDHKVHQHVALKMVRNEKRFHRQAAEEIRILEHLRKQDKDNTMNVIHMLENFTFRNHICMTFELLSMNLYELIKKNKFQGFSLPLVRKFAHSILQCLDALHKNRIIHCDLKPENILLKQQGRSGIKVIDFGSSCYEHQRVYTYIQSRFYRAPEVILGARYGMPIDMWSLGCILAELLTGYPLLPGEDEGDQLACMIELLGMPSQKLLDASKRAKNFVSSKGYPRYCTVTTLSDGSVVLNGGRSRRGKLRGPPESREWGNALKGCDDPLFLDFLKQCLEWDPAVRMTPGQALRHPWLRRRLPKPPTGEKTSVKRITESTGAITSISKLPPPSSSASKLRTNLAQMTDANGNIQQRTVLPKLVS
Protocol: as §1, §2

FAK (h) = molecular target: T17, FAK (h) (Homo sapiens, UniProt Q05397); test: Radiometric protein kinase assay (Eurofins); type: biochemical; conditions: 40 min; ATP 70 μM; read-out: FAK IC50
T17 construct: purchased Eurofins, Dundee, Scotland

T5 sequence (Q96SB4 whole entry): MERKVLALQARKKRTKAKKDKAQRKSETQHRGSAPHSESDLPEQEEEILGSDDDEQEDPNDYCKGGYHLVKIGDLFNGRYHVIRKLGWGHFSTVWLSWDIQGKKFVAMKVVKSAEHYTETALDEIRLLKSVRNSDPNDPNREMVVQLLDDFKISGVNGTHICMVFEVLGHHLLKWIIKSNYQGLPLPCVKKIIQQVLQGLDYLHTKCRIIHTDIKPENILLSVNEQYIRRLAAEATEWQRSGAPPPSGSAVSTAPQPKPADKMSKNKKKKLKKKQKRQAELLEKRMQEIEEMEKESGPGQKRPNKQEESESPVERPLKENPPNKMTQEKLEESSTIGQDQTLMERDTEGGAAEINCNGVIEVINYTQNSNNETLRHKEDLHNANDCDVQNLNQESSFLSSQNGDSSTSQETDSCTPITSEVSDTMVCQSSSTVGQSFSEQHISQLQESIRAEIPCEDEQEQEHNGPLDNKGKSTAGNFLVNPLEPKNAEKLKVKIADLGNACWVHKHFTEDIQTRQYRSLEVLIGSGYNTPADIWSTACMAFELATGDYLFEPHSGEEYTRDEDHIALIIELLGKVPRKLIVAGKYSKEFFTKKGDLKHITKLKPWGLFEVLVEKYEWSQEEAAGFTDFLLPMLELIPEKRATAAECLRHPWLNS
T8 sequence (P68400 whole entry): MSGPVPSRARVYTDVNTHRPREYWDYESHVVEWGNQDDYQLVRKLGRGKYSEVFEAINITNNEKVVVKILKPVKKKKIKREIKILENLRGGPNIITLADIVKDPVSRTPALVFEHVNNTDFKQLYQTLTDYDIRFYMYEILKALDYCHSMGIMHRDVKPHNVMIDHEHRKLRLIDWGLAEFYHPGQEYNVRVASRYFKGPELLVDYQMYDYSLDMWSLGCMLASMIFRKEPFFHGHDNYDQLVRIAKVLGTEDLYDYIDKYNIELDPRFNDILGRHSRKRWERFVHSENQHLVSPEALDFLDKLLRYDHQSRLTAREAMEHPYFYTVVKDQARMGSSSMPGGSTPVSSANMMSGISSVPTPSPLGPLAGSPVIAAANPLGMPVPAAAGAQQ
T8 sequence (P67870 whole entry partner): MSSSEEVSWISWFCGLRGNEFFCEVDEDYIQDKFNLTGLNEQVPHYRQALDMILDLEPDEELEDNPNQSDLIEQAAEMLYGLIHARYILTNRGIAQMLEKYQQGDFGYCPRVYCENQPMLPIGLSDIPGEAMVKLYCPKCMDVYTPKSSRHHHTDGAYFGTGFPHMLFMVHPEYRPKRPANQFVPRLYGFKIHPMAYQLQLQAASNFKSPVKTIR
T4 sequence (P49761 whole entry): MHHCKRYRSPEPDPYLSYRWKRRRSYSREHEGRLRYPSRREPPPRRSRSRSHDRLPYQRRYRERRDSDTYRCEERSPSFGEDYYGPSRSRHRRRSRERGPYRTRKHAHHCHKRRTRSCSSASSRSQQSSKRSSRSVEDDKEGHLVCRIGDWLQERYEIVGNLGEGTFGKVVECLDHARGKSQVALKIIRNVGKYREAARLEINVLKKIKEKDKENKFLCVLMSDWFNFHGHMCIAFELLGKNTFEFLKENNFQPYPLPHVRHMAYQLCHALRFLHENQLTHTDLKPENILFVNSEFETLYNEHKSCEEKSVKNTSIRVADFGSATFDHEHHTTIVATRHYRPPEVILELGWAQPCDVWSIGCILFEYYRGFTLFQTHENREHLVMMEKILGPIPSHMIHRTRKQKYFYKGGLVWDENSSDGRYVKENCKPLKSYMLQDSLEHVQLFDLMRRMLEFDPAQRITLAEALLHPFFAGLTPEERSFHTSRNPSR
T14 sequence (Q9UPE1 whole entry): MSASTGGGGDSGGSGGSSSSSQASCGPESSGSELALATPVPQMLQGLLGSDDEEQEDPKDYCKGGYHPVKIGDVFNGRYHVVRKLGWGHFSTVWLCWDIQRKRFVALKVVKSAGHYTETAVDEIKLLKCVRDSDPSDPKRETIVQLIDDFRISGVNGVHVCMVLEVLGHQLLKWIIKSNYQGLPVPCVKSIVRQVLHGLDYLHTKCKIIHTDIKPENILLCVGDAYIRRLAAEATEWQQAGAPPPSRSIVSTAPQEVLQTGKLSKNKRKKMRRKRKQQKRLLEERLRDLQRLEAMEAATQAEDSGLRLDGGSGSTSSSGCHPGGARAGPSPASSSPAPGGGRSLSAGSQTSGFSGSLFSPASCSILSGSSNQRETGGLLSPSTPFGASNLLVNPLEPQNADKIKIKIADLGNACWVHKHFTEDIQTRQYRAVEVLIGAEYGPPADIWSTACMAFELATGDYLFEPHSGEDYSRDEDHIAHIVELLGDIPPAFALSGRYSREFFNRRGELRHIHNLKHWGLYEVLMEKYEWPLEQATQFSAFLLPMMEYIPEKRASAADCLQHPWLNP
T15 sequence (P27361 whole entry): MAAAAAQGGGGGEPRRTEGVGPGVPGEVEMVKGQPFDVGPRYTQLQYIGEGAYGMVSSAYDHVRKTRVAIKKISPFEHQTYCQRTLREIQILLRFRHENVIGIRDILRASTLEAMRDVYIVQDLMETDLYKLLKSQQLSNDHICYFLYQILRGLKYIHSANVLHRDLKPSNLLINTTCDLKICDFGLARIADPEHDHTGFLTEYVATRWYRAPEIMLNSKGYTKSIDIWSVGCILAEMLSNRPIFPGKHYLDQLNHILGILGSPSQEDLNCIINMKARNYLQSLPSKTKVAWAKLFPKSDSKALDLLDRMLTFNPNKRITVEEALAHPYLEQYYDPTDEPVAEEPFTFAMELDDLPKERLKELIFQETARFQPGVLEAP
T13 sequence (P78362 whole entry): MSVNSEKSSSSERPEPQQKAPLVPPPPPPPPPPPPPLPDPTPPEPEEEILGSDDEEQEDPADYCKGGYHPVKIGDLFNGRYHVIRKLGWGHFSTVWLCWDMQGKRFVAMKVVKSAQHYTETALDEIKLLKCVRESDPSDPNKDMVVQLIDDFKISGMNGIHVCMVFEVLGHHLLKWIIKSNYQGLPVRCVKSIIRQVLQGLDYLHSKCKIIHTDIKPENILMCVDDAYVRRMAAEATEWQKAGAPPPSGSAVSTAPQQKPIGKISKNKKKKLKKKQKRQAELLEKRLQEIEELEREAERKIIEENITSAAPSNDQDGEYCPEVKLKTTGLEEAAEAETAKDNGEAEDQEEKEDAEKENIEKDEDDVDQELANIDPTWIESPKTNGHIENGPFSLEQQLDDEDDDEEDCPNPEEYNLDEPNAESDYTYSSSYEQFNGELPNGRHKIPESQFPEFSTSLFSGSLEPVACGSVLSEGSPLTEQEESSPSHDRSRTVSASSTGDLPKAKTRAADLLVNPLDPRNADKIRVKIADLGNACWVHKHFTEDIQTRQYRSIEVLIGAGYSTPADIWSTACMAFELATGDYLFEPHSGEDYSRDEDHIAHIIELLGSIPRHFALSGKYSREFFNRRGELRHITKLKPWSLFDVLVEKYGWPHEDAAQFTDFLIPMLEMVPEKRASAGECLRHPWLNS
T11 sequence (P19784 whole entry): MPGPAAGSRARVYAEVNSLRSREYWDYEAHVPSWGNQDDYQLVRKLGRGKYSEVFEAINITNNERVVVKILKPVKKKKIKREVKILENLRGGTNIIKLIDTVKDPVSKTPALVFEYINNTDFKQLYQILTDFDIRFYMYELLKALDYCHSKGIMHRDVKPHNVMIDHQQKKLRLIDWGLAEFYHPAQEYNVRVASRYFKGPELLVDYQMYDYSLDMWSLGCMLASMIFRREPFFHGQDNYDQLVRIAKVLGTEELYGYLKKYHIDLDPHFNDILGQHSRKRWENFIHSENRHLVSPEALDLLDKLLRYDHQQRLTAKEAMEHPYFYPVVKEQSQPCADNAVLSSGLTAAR
T3 sequence (Q9Y243 whole entry): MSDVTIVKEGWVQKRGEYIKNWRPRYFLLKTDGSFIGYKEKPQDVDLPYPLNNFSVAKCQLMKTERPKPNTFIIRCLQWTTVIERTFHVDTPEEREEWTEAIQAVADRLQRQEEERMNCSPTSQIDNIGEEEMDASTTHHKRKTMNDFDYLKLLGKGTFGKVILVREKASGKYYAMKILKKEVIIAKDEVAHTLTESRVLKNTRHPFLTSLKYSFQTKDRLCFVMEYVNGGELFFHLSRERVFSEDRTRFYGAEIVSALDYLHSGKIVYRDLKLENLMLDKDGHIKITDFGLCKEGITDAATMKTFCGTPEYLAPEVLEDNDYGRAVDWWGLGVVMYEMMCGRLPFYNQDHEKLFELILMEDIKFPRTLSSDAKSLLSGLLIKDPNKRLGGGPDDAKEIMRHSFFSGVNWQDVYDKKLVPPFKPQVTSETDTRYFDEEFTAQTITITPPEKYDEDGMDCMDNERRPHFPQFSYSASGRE
T12 sequence (Q9HAZ1 whole entry): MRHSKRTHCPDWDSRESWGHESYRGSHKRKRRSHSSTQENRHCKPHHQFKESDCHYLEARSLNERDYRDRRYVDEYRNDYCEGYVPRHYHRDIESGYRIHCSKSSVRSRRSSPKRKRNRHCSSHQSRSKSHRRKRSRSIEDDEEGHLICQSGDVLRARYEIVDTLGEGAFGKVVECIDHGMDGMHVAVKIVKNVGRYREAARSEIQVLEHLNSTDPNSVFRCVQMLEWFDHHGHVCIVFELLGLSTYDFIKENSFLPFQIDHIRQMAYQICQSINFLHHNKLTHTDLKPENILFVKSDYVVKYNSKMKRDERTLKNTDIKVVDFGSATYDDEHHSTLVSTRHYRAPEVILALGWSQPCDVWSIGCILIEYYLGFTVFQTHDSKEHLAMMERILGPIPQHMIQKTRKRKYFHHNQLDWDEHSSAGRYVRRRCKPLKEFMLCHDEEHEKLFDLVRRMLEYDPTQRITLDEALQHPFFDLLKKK

IC50 (CLK2(h)) [µM]	IC50 (CLK3(h)) [µM]	inhibition at 1 µM (MAPK2 (h)) [%]	IC50 (CLK1(h)) [µM]	inhibition at 1 µM (CK2 (h)) [%]	inhibition at 1 µM (GSK3α(h)) [%]	inhibition at 1 µM (CK2α2 (h)) [%]	IC50 (CLK4(h)) [µM]	inhibition at 1 µM (SRPK2 (h)) [%]	inhibition at 1 µM (MAPK1 (h)) [%]	inhibition at 1 µM (FAK (h)) [%]	Structure (SMILES)	Effect on phosphorylation of SR proteins (immunoblot) [1]	further results
0.001	0.425	< 50	0.003	< 50	< 50	< 50	0.013	< 50	< 50	< 50	CNC(=O)c1nn(C)c2c1C(C)(C)Cc1cnc(Nc3ccc(N4CCN(C)CC4)cc3)nc1-2 [Compound 1, milciclib]	reduced phosphorylation of both SR and SF3B1 proteins significantly	IC50 (DYRK1B (h)): 0.005 µM; inhibition at 1 µM (AKT3; 40 min, read-out: AKT3 IC50): < 50%; inhibition at 1 µM (SRPK1(h); 40 min, read-out: SRPK1 IC50): < 50%; IC50 (DYRK1A(h)): 0.017 µM; inhibition at 1 µM (SRPK3 (h); 40 min, read-out: SRPK3 IC50): < 50%; IC50 (DYRK2 (h)): 0.048 µM
0.006	0.485	< 50	0.027	< 50	< 50	< 50	0.048	< 50	< 50	< 50	Cc1nc(Nc2[nH]nc3c2CN(C(=O)N[C@H](CN(C)C)c2ccccc2)C3(C)C)c2sccc2n1 [Compound 2, PF-3758309]	reduced phosphorylation of both SR and SF3B1 proteins significantly	inhibition at 1 µM (DYRK1B (h); 40 min, read-out: DYRK1B IC50): < 50%; IC50 (AKT3): 0.054 µM; IC50 (SRPK1(h)): 0.17 µM; inhibition at 1 µM (DYRK1A(h); 40 min, read-out: DYRK1A IC50): < 50%; IC50 (SRPK3 (h)): 0.189 µM; inhibition at 1 µM (DYRK2 (h); 40 min, read-out: DYRK2 IC50): < 50%
